Experimental data reported in US9504674B2, “TrkB agonists and methods of use” (EMORY UNIVERSITY, priority 2010, dated 2016).

Legend:
[1] = tested on: dentate gyrus progenitor proliferation; experiment: Neurogenesis assay (BrdU positive cells in dentate gyrus); assay type: in vivo, mouse; conditions: 5 mg/kg oral for 21 days, BrdU 50 mg/kg i.p., 2 h
Experimental: 4′-Dimethylamino-7,8-dihydroxyflavone and 7,8-dihydroxyflavone promote neurogenesis. Male C57BL/6J mice were orally administrated with 5 mg/kg 4′-DMA-7,8-DHF and 7,8-DHF and vehicle solvent for 21 days and followed by 50 mg/kg BrdU ip injection. In 2 h, the mice were perfused and brain sections were immunostained with anti-BrdU and DAPI. The positive cells in dentate gyms were highlighted by arrow (left panels). Quantitative analysis of the BrdU positive cells in dentate gyms (right panel).
Adult male mice (2-3 months old) were orally injected with Saline, 4′-DMA-7,8-DHF and 7,8-DHF (5 mg/kg) for 21 days. Then Brdu (50 mg/kg) was i.p. injected. In 2 h, the mice were perfused with 4% paraformaldehyde. Immunohistochemical staining was performed on formalin-fixed paraffin-embedded sections. Sections from brain were cut, deparaffinized in xylene and rehydrated in graded alcohols. The slides were boiled in 10 mM citric acid (pH 6.0) for 10 min followed by an incubation in 2 N HCl for 10 min in room temperature. The slides were then permeabilized and blocked with 1% BSA in 0.2% PBST. The incorporated BrdU were stained using anti-BrdU-FITC (Abcam, USA) at 4° C. for 16 hr. […] The slides were finally mounted with AquaMount (Lerner Laboratories, USA) containing 0.01% 1,4-diazobicyclo(2,2,2)octane and examined under a fluorescence microscope. […]

MAPK = MAPK phosphorylation in primary neurons (immunoblotting); assay type: cell-based, rat; conditions: 500 nM, time course
Experimental: Rat primary neurons were treated with 500 nM. 4′-DMA-7,8-DHF from various time points. The neuronal lysates were analyzed with various antibodies. 4′-DMA-7,8-DHF rapidly activated TrkB and its downstream signaling cascades (left panels). […] One mg/kg of 4′-DMA-7,8-DHF and 7,8-DHF were orally administrated into C57 BL/6J mice and TrkB phosphorylation and its downstream signaling cascades including Akt and MAPK in mouse brain were analyzed by immunoblotting at various time points. TrkB activation by 4′-DMA-7,8-DHF peaked at 4 h, whereas the maximal TrkB activation by 7,8-DHF in mouse brain occurred at 1-2 h (middle panels).
To compare the TrkB activation by these synthetic compounds, primary cortical cultures were prepared. Cortical neurons were treated with 500 nM of various compounds for 20 min and cell lysates were collected. […] Replacing the H-bond acceptor O atom with hydrogen bond donor NH abolishes its stimulatory effect. […] On the other hand, 7,8-DHF provoked TrkB activation with the minimal concentration of 100 nM (FIG. 2B, right panels). To further study 4′-DMA-7,8-DHF's kinetics on TrkB activation, primary neurons were treated for various time points. 4′-DMA-7,8-DHF swiftly activated TrkB as soon as 5 minutes following treatment. […] TrkB activation was monitored at different time points.

SMILES	neurogenesis (BrdU) compared to vehicle control [1]	time of peak MAPK phosphorylation (MAPK) [min]
CN(C)c1ccc(-c2cc(=O)c3ccc(O)c(O)c3o2)cc1 [4′-DMA-7,8-DHF, 4′-dimethylamino-7,8-dihydroxyflavone]	significantly increased neurogenesis	10
O=c1cc(-c2ccccc2)oc2c(O)c(O)ccc12 [7,8-DHF, 7,8-dihydroxyflavone, reference compound]	significantly increased neurogenesis	–
